Assay results as given in US20020198219A1, “2-pyridinamine compositions and related methods” (priority 2000, published 2002).
pEC50, pIC50, pKi: −log10 of the molar value. Where two headings read alike, the source gives them in different places.

How the values were obtained:
[1] = test system: NMDA receptor; conditions: P19 membranes; concentration-dependent
Experimental: MK-801 inhibition of [^3H]-MK-801 binding was assayed in P19 membranes. MK-801 concentrations are expressed as 10^−x Molar. Data points represent the mean ±standard error from eight experiments. % control=((CPM−CPMbottom)/(CPMtop−CPMbottom))×100.
Data points represent the mean ±standard error from eight experiments.

[2] = test system: NMDA receptor; conditions: 3 mM glutamate, 1 mM glycine; MK-801 100 μM, U0126 10 μM
Experimental: Cells were loaded with 5 μM Fura-2-AM (Molecular Probes) for 1 hr at 37° C. They were washed once with Hank's balanced salt solution (HBSS, Gibco BRL), and assayed in HBSS buffer. Cells were placed onto the stage of a modified ATTOFLUOR™ Imager (Atto Instruments, Rockville Pike, Md.). High speed, dual excitation of fura-2 was carried out using a RATIOARC™ High-Speed Excitor (Atto Instruments). Mercury lamp light was passed through 334 nm or 380 nm bandpass filters (10 nm band width), and then passed through a 20× objective (Zeiss, Plan-Apochromat, NA=0.75) at a rate of 2.5 Hz. Emitted light was transmitted through a 400 nm dichroic mirror, and collected to an ATTOFLUORT intensified CCD camera. Ratio-images were acquired, and the average intensity of the images when excited at 334 nm and 380 nm was analyzed using ATTOFLUOR RATIOVISION™ software (Atto Instruments, Rockville, Md.).
MK-801 was administered 24 hours prior to assay. Traces are the average ±standard error from three separate experiments for each condition. […] MK-801 inhibition of [^3H]-MK-801 binding was assayed in P19 membranes. MK-801 concentrations are expressed as 10^−x Molar. Data points represent the mean ±standard error from eight experiments. % control=((CPM−CPMbottom)/(CPMtop−CPMbottom))×100.
Traces are the average ±standard error from four separate experiments for each condition.

[3] = test system: differentiated P19 neurons; experiment: Differentiated P19 excitotoxicity assay (glutamate/glycine-induced death, Alamar Blue); type: cell-based, murine; conditions: for pIC50: read-out: IC50 for Neuroprotection [lower-upper 95% C.I.]; for Emax: read-out: Maximal Efficacy for Neuroprotection
Experimental: Alamar Blue fluorescence, an indicator of cell viability, was used to determine cell viability after an NMDA-induced cytotoxic insult. […] However, since raw fluorescence counts vary from experiment to experiment, FIGS. 2A, 2B, and 2C are expressed as a percent of control.
(§1) Glutamate toxicity dose response in the presence of a constant 1 mM glycine concentration was measured in the differentiated P19 neurons. The curve generated through the data points is the average of 6 separate dose response curves. Data points are represented as the percent of control cells ±standard error. % control=(([Glutamate]exp−[Glutamate]max)/(Controlvehicle−[Glutamate]max))×100.
Data points are the average ±standard error of three separate experiments.
These cells were used to measure the effects of various known kinase inhibitors (Compound Identification (ID) column in Table I) upon cytotoxicity-induced by NMDA. First, P19 cells were differentiated as described in Example 2. Then cells were exposed to 3 mM of glutamate in the presence of 1 mM glycine.
Cell viability was determined. Compounds that prevented excitotoxicity were determined by measuring the percentage of viable cells compared to differentiated P19 cells that were not presented with a toxic insult (Table I).
Cell viability was measured using two methods. The first method was a confocal, single-cell fluorescence imaging-based method using the live cell dye carboxy-fluorescein diacetate (CFDA). CFDA labels the cell bodies and processes of living cells. […] CFDA fluorescence was measured using a modified Attofluor Imager device (Atto Instruments, Rockville Pike, Md.). Cells were labeled with 1 uM CFDA for 15 min in media, then placed onto the stage of the Attofluor microscope. The dye was excited by light from a mercury lamp source passed through a 488 nm bandpass filter of 10 nm band width, passed through a CARV real-time confocal spinning disk module (Atto Instruments, Rockville, Md.), and then passed through a 40× oil immersion objective (Zeiss Fluar, NA=1.3). Emitted light was transmitted through a 495 nm dichroic mirror, collected to an Attofluor intensified CCD camera, and images were visualized using Attofluor RatioVision software (Atto Instruments, Rockville, Md.).
The second method for measuring cell viability was a plate reader method. Cells plated into black 96 well plates (Packard viewplates) are loaded with 5% Alamar Blue dye (Biosource International). Alamar Blue is a dye that takes advantage of mitochondrial reductases to convert non-fluorescent resazurin to fluorescent resorufin (excitation 535 nm, emission 580 nm). Baseline fluorescence counts were read at room temperature in a Wallac plate reader immediately after addition of Alamar blue. Fluorescence counts of cell viability were taken the same way after 1 hour incubation at 37° C. Fluorescence was expressed as a percent of control, untreated cells after subtraction of background fluorescence. Live/dead cells were confirmed visually with a light microscope. […]

[4] = biological target: CAMKII; conditions: from the literature; read-out: Potency, CAMKII; cited from earlier work
[5] = biological target: T1, Calmodulin Kinase (Rattus norvegicus, UniProt P11275); experiment: Kinase assay (33P Flashplate), Calmodulin Kinase; type: biochemical; conditions: mean of at least two curves
T1 construct: host or cells: insect cells
T1 sequence (P11275 1-325): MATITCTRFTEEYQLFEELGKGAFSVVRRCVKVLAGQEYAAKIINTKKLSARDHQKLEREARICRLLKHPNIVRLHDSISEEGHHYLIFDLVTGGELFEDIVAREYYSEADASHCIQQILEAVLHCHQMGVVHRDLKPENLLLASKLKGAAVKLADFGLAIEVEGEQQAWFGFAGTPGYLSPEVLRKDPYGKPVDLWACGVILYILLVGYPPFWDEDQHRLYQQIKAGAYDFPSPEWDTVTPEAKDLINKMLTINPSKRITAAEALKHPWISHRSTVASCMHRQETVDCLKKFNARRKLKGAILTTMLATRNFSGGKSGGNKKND
Experimental: (§2) The general procedure used to assay for kinase activity was as follows: a kinase reaction mix was prepared in 50 mM Tris-HCl pH=8, 10 mM MgCl2, 0.1 mM Na3VO4, 1 mM DTT, 10 μM ATP, 0.25-1 μM biotinylated peptide substrate, 0.2-0.8 [Curies per well ^33P-γ-ATP [2000-3000 Ci/mmol]. Assay conditions varied slightly for each protein kinase, for example, insulin receptor kinase requires 10 mM MnCl2 for activity and calmodulin-dependent protein kinase requires calmodulin and 10 mM CaCl2. Reaction mix was dispensed into the wells of a streptavidin-coated Flashplate and 1 μl drug stock in 100% DMSO was added to a 100 μL reaction volume resulting in a final concentration of 1% DMSO in the reaction. Enzyme was diluted in 50 mM Tris-HCl pH=8.0, 0.1% BSA and added to each well. […] Test compounds were assayed in duplicate at 8 concentrations ranging from 100 μM to 10 μM in one order of magnitude steps. […] The IC50 was calculated from the dose response curve of the percent inhibition of the maximum signal in the assay according to the formula [max signal−background/test compound signal−background×(100)]=% inhibition by graphing the percent inhibition against the log concentration of test compound.
(§3) Casein Kinase 1 is a truncation at amino acid 318 of the C-terminal portion of the rat CK1 delta isoform produced in E. coli.

[6] = test system: P19 neurons
Experimental: as §1

[7] = biological target: T2, Casein Kinase 2 (Homo sapiens, UniProt P68400); experiment: Kinase assay (33P Flashplate), Casein Kinase 2; type: biochemical; conditions: mean of at least two curves
T2 construct: host or cells: E. coli
T2 sequence (P68400 whole entry): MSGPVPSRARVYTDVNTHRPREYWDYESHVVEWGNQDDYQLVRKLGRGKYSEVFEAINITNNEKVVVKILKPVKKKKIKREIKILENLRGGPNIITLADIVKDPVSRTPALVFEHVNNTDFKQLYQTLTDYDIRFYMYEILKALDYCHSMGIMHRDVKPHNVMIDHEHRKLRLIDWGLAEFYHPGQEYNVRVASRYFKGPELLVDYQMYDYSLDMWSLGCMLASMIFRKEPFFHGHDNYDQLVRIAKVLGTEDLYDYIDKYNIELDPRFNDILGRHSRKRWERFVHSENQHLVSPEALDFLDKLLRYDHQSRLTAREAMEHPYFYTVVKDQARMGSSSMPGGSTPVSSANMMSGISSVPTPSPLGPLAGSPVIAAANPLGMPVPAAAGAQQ
T2 sequence (P67870 whole entry partner): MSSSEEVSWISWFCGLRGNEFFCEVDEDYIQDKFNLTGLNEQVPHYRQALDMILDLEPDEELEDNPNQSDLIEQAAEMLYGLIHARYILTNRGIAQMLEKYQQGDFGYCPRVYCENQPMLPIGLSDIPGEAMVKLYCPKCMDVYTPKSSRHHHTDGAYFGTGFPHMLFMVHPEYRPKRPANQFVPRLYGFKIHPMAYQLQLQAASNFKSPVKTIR
Experimental: as §2, §3

[8] = biological target: T3, CDK1 (Homo sapiens, UniProt P06493); experiment: Kinase assay (33P Flashplate), CDK1; type: biochemical; conditions: mean of at least two curves
T3 construct: host or cells: insect cells
T3 sequence (P06493 whole entry): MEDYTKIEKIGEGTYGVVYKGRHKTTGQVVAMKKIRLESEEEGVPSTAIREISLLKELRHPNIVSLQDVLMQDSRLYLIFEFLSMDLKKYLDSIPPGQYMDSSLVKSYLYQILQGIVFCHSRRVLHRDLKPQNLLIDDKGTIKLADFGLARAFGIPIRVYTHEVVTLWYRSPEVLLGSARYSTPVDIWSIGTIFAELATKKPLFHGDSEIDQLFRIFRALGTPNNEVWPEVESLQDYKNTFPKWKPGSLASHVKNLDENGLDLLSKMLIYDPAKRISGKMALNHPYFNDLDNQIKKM
T3 sequence (P14635 whole entry partner): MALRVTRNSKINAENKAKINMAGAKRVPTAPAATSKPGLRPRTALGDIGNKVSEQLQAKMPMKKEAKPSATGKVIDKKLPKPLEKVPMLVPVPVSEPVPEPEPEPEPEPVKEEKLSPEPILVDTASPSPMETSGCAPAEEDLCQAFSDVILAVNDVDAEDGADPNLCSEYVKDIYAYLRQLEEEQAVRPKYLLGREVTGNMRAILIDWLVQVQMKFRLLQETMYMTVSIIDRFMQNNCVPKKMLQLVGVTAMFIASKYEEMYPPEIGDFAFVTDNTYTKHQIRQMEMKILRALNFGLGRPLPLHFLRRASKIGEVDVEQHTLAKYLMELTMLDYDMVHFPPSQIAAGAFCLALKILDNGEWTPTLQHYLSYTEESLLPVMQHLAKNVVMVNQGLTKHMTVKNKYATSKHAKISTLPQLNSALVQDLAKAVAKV
Experimental: as §2, §3

[9] = biological target: T4, Casein Kinase 1 (Rattus norvegicus, UniProt Q06486); experiment: Kinase assay (33P Flashplate), Casein Kinase 1; type: biochemical; conditions: mean of at least two curves
T4 construct: a truncation at amino acid 318 of the C-terminal portion of the rat CK1 delta isoform; host or cells: E. coli
T4 sequence (Q06486 1-317): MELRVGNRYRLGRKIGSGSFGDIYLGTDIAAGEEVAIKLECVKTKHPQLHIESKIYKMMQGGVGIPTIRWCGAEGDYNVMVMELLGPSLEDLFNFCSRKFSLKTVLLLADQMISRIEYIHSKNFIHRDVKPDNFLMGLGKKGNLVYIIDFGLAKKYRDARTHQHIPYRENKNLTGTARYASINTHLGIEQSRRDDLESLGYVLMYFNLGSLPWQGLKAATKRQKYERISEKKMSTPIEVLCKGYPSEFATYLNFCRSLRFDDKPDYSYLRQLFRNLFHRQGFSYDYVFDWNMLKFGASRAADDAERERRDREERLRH
Experimental: as §2, §3

[10] = biological target: T5, PKC-γ (Homo sapiens, UniProt P05129); experiment: Kinase assay (33P Flashplate), PKC-γ; type: biochemical; conditions: mean of at least two curves
T5 construct: host or cells: insect cells
Experimental: as §2, §3

[11] = biological target: T6, PK A (Bos taurus, UniProt P00517); experiment: Kinase assay (33P Flashplate), Protein Kinase A; type: biochemical, bovine
T6 construct: Protein Kinase A is the catalytic subunit of cAMP-dependent protein kinase-A purified from bovine heart; from tissue; host or cells: bovine heart
Experimental: (§4) Assay conditions varied slightly for each protein kinase, for example, insulin receptor kinase requires 10 mM MnCl2 for activity and calmodulin-dependent protein kinase requires calmodulin and 10 mM CaCl2. Reaction mix was dispensed into the wells of a streptavidin-coated Flashplate and 1 μl drug stock in 100% DMSO was added to a 100 μL reaction volume resulting in a final concentration of 1% DMSO in the reaction. Enzyme was diluted in 50 mM Tris-HCl pH=8.0, 0.1% BSA and added to each well. The reaction was incubated for one hour at 30° C. in the presence of compound. After one hour the reaction mix was aspirated from the plate and the plate was washed with PBS containing 100 mM EDTA. The plate was read on a scintillation counter to determine ^33P-γ-ATP incorporated into the immobilized peptide. Test compounds were assayed in duplicate at 8 concentrations ranging from 100 μM to 10 μM in one order of magnitude steps. A maximum and minimum signal for the assay was determined on each plate. The IC50 was calculated from the dose response curve of the percent inhibition of the maximum signal in the assay according to the formula [max signal−background/test compound signal−background×(100)]=% inhibition by graphing the percent inhibition against the log concentration of test compound. Known inhibitor compounds appropriate for the kinase being assayed were also included on each plate. […]

[12] = biological target: EGF-R (Homo sapiens, UniProt P00533); experiment: biochemical
Chain of EGF-R (P00533 25-1210): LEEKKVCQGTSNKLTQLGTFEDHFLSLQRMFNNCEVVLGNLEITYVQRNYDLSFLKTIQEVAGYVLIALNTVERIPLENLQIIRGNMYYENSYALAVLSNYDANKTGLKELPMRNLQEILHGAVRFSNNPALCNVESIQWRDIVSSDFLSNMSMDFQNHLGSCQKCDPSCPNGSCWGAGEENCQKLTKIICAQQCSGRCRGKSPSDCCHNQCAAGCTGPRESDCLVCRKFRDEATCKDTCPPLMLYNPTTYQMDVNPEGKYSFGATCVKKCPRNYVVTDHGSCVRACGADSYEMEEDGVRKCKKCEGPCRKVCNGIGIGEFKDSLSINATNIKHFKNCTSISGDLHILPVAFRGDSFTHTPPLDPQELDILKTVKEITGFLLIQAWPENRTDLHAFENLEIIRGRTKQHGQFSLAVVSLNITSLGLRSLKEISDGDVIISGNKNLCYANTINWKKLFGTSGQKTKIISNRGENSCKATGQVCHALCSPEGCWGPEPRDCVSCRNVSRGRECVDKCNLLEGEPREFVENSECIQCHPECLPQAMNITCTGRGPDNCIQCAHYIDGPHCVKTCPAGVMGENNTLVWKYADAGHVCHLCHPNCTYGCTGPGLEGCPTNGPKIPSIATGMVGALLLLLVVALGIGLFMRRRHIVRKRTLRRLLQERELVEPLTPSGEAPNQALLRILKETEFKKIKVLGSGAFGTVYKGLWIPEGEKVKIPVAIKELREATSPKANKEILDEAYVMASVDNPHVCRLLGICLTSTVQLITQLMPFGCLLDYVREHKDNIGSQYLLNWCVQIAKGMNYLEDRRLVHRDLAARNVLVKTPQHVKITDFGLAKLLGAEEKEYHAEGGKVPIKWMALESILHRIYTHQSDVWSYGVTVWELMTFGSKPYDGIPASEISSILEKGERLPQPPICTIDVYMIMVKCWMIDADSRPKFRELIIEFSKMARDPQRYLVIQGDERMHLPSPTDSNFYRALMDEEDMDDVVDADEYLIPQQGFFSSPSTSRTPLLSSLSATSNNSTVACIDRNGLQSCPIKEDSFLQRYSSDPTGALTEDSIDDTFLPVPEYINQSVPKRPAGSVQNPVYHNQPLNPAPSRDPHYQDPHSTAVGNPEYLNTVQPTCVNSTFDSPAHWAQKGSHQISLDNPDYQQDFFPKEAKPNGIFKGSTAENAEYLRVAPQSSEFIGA
Experimental: as §4

[13] = biological target: T7, Insulin Receptor Kinase (Homo sapiens, UniProt P06213); experiment: Kinase assay (33P Flashplate), Insulin Receptor Kinase; type: biochemical; conditions: mean of at least two curves
T7 construct: Insulin Receptor Kinase consists of residues 941-1313 of the cytoplasmic domain of the beta-subunit of the human insulin receptor
T7 sequence (P06213 980-1352): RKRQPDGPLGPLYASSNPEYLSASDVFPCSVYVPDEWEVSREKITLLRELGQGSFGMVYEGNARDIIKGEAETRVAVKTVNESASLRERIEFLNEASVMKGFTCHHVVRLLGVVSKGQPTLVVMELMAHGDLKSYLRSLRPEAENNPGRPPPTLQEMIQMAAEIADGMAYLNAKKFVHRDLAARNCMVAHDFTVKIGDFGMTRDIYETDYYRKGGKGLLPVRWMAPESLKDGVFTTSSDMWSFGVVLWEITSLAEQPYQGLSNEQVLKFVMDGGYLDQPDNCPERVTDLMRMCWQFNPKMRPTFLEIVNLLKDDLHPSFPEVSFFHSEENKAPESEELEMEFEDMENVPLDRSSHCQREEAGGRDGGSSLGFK
Experimental: as §2, §3

[14] = biological target: T8, PKG (Homo sapiens, UniProt Q13976); conditions: from the literature; read-out: Potency, PKG; cited from earlier work
T8 sequence (Q13976 1-671): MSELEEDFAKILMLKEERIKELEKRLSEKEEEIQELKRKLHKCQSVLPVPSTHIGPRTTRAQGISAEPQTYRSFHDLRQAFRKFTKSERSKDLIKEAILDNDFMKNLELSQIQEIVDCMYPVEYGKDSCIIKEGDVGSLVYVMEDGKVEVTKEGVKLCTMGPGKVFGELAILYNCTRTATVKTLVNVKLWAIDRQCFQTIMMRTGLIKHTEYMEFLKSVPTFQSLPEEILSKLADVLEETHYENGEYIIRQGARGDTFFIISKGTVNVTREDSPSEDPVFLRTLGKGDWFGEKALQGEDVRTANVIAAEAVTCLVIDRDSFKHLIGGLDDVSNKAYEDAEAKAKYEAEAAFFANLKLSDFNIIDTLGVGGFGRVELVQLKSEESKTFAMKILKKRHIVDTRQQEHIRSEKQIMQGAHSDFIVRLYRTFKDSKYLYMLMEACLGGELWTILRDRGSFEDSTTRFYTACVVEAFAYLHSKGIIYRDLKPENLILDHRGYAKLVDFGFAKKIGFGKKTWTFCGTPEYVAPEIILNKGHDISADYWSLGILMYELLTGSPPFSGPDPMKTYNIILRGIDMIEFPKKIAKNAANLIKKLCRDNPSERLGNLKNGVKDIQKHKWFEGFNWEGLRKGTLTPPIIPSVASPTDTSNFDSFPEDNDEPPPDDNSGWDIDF

[15] = biological target: PKA (Homo sapiens, UniProt P17612); conditions: from the literature; read-out: Potency, PKA; cited from earlier work
[16] = biological target: p60^c-src (Homo sapiens, UniProt P12931); conditions: from the literature; read-out: Potency, p60^c-src; cited from earlier work
[17] = test system: PKC; conditions: from the literature; read-out: Potency, PKC; cited from earlier work
[18] = test system: P19 neurons; experiment: A23187-induced toxicity in P19 neurons (Alamar blue); type: cell-based, murine; conditions: Mus musculus, Neuron, 24 h
Experimental: Cells were then assayed for Alamar blue fluorescence. […] Data points are represented as percent of control cells ±standard error.

[19] = biological target: EGF receptor (Homo sapiens, UniProt P00533); conditions: from the literature; read-out: Potency, EGF receptor; cited from earlier work
[20] = 3 mM glutamate + 1 mM glycine, mean of three separate curves
[21] = Mus musculus, Neuron, 3 mM glutamate + 1 mM glycine, mean of three separate curves
[22] = Mus musculus, Neuron, 3 mM glutamate + 1 mM glycine

With C[C@]12N[C@H](Cc3ccccc31)c1ccccc12 [MK-801] the “inhibition of [3H]-MK-801 binding” value [1] was 100%, the “effect on glutamate/glycine-induced intracellular calcium response” value [2] was “significantly inhibited” and the “Maximal protection against glutamate toxicity” value ([3]; 3 mM glutamate and 1 mM glycine-induced P19 neuron death) was “close to control levels”.

For CN([C@@H](Cc1ccc(OS(=O)(=O)c2cccc3cnccc23)cc1)C(=O)N1CCN(c2ccccc2)CC1)S(=O)(=O)c1cccc2cnccc12 [KN62], the pKi [4] is listed as ~6.05, the “Maximal Efficacy for Neuroprotection” value ([3]; 3 mM glutamate + 1 mM glycine) is listed as <10% and the “IC50 for Neuroprotection [lower-upper 95% C.I.]” value [3, 20] is listed as “Ineffective”.

In the case of N#CC(=C(/N)Sc1ccccc1N)/C(C#N)=C(/N)Sc1ccccc1N [U0126, bis[amino[(2-aminophenyl)thio]methylene] Butanedinitrile], the pIC50 [5] was < 4.00, the “effect on basal P19 neuron viability” value [6] was “did not affect the basal viability” and the pIC50 [7] was < 4.00. The pIC50 [8] was < 4.00, the pIC50 [9] was < 4.00 and the pIC50 [10] was 4.53. For the same compound, the pIC50 [11] was < 4.00, the pIC50 [12] was < 4.00 and the pIC50 [3, 21] was 5.96. The Emax [3, 22] was > 80%.

For COc1cc(N)nc2[nH]c(-c3ccc(F)cc3)c(-c3ccncc3)c12 [Compound A], the pIC50 [5] was < 4.00, the pIC50 [7] was < 4.00 and the pIC50 [13] was < 4.00. For the same compound, the pIC50 [8] was < 4.00, the pIC50 [9] was 6.94 and the pIC50 [10] was 5.08. The pIC50 ([11]; mean of at least two curves, read-out: PK A) was < 4.00, the pIC50 [3, 21] was 5.01 and the Emax [3, 22] was > 80%.

For Calphostin C, the pIC50 [14] is listed as < 4.60, the pIC50 [15] is listed as < 4.30 and the pIC50 [16] is listed as < 4.30. The “Maximal Efficacy for Neuroprotection” value ([3]; 3 mM glutamate + 1 mM glycine) was “˜50%”, the pIC50 [3, 20] was < 6.00 and the pIC50 [17] was ~7.30.

Compound CNc1ccc2oc(C[C@H]3O[C@@]4(CC[C@H]3C)O[C@H]([C@H](C)C(=O)c3ccc[nH]3)[C@H](C)C[C@H]4C)nc2c1C(=O)O [A23187] has a pEC50 ([18]; read-out: EC50 for A23187 toxicity, 24 hours, in the absence of U0126) of 6.28 and a pEC50 ([18]; read-out: EC50 for A23187 toxicity, 24 hours, in the presence of 10 μM U0126) of 6.08.

For O=C(O)c1cc(N(Cc2ccccc2O)Cc2cc(O)ccc2O)ccc1O [Lavendustin A], the pIC50 [16] is listed as ~6.30, the pIC50 [19] is listed as ~7.96 and the “Maximal Efficacy for Neuroprotection” value ([3]; 3 mM glutamate + 1 mM glycine) is listed as <25%. For the same compound, the pIC50 [3, 20] was < 5.00.
